Measured values: patent publication US5607931A, “1,2-disubstituted ethly amides as inhibitors of ACAT” (Schering Corporation, priority 1995, dated 1997)

Columns and labels:
ACAT = molecular target: T1, ACAT (Rattus norvegicus, UniProt Q7TQM4); test: ACAT Assay (in vitro), transfer of tritiated oleic acid from acyl-CoA to cholesterol, rat liver microsomes; format: biochemical; settings: for inhibition at 10 µM: read-out: % ACAT Inhib. @10 μM; for IC50: 0.1 to 25 μM
T1 construct: Rat liver microsomes are used as the source of ACAT; from tissue; host or cells: rat liver microsomes
T1 sequence (Q7TQM4 1-524): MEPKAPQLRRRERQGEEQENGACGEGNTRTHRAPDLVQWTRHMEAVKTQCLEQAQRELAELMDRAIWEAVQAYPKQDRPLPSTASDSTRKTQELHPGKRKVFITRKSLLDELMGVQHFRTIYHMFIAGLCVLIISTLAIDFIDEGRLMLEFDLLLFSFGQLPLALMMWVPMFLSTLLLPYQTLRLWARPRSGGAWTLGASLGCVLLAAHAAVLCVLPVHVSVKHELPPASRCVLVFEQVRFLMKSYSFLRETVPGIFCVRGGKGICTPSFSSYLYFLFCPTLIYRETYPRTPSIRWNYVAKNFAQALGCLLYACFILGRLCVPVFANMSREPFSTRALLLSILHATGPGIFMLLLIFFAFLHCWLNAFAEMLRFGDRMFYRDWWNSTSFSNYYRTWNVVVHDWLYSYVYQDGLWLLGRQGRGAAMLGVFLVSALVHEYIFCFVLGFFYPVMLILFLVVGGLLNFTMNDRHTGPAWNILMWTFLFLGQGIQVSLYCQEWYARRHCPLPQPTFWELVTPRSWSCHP
Protocol: This assay measures the activity of ACAT by measuring the ACAT-mediated transfer of tritiated oleic acid from acyl-CoA to cholesterol to give labelled cholesterol oleate. Rat liver microsomes are used as the source of ACAT. Assays are performed in round bottom microtiterplates using a total incubation volume of 50 μL. Each incubation well receives 10 μL assay buffer (0.5M KHPO4, 10 μM dithiothreitol, pH 7.4), 7.5 μL of 40 mg/mL BSA (Bovine Serum Albumin) and 12.5 μg of microsomal protein. The test compound (in sufficient amount to bring the final concentration to from 0.1 to 25 μM), reference compound, or vehicle control is added and the final volume brought to 47 μL. The microtiterplate is then floated on the surface of a 37° C. water bath for fifteen minutes. Incubations are started by the addition of 3 μL ^3 H-acyl CoA (1 μCi/well, final concentration of 10 μM acyl CoA). The plate is then returned to the water bath for 15 minutes. The incubations are then terminated by application of 15 μL from each incubation to individual lanes on a thin layer plate (Silica Gel GF 20×20 cm). Standards are applied to several lanes so that the cholesterol ester band can be identified. After drying, the plates are eluted with 90:10:1 petroleum ether:diethyl ether:acetic acid. The standards are visualized via iodine vapor, and the regions corresponding to cholesterol ester are scraped into 7 mL scintillation vials. 4 mL of scintillant are added to each vial, and the radioactivity quantified. Background count is determined by the boiled controls. Full activity is determined by activity in the presence of vehicle. The percent inhibition is calculated by subtracting the background from both control and test samples, and the test value is calculated as a percentage of the control. For IC50 determinations, the inhibition is plotted against drug does on a log scale and the concentration at which 50% inhibition is obtained is determined.

liver cholesterol esters = test: In Vivo Assay of Hypolipidemic Agents Using the Hyperlipidemic Hamster; settings: Mesocricetus auratus, 168 h; 50 mpk, oral gavage in corn oil once daily, seven days; 0.5% cholesterol diet; percent reduction versus control; read-out: In Vivo 50 mpk % Redn. L/CE
Protocol: In Vivo Assay of Hypolipidemic Agents Using the Hyperlipidemic Hamster
Hamsters are separated into groups of six and given a control cholesterol diet (Purina Chow #5001 containing 0.5% cholesterol) for seven days. Diet consumption is monitored to determine dietary cholesterol exposure in the face of test compounds. The animals are dosed with the test compound once daily beginning with the initiation of diet. Dosing is by oral gavage of 0.2 mL of corn oil alone (control group) or solution (or suspension) of test compound in corn oil. All animals moribund or in poor physical condition are euthanized. After seven days, the animals are anesthetized by IM injection of ketamine and sacrificed by decapitation. Blood is collected into vacutainer tubes containing EDTA for plasma lipid analysis and the liver excised for tissue lipid analysis. Data is reported as percent reduction of lipid versus control.

SMILES	inhibition at 10 µM (ACAT) [%]	IC50 (ACAT) [nM]	change in vivo at 50 mg/kg (liver cholesterol esters) [%]
O=C(NC(CN1CCC(=NO)CC1)c1ccccc1)C(c1ccccc1)c1ccccc1 (centres unmarked)	94	400	0
CC(=O)OC1CCN(CC(NC(=O)C(c2ccccc2)c2ccccc2)c2ccccc2)CC1 (centres unmarked)	59		-25
COC1CCN(CC(NC(=O)C(c2ccccc2)c2ccccc2)c2ccccc2)CC1 (centres unmarked)	88	1000	-30
O=C(NC(CN1CCC(O)CC1)c1ccccc1)C(c1ccccc1)c1ccccc1 (centres unmarked)	83	3000	-25
O=C(NC(CN1CCCCC1)c1ccccc1)C(c1ccccc1)c1ccccc1 (centres unmarked)	64		0
CN1CCN(CC(NC(=O)CCCCCCCCCCOc2ccccc2)c2ccccc2)CC1 (centres unmarked)	80	4000	0
CC(=O)CC(=O)OC1CCN(CC(NC(=O)C(c2ccccc2)c2ccccc2)c2ccccc2)CC1 (centres unmarked)	53		
CCCCCCCC/C=C\CCCCCCCC(=O)NC(CN1CCC(NC(=O)C(F)(F)F)CC1)c1ccccc1 (centres unmarked)	90	800	0
CCCCCCCC/C=C\CCCCCCCC(=O)NC(CN1CCC2(CCCC2)CC1)c1ccccc1 (centres unmarked)	59		0
CCCCCCCC/C=C\CCCCCCCC(=O)NC(CN1CCNCC1)c1ccccc1 (centres unmarked)	64		-54
CCCCCCCCCCCC(=O)NC(CN1CCN(C)CC1)c1ccccc1 (centres unmarked)	58		0
O=C(NC(CN1CCOCC1)c1ccccc1)C(c1ccccc1)c1ccccc1 (centres unmarked)	94	3000	-15
CCCCCCCC/C=C\CCCCCCCC(=O)NC(CN1CCCCC1)c1ccccc1 (centres unmarked)	94	1200	-12
CCCCCCCCCCCCCCC(C)(C)C(=O)NC(CN1CCN(C)CC1)c1ccccc1 (centres unmarked)	97	1100	-40
CCCCCCCCCCCCCCCCCC(=O)NC(CN1CCN(C)CC1)c1ccccc1 (centres unmarked)	90	500	-25
CCCCCCCC/C=C\CCCCCCCC(=O)NC(CN1CCC(N)CC1)c1ccccc1 (centres unmarked)	-90		-59
CCCCCCCCCCCCCCCC(=O)NC(CN1CCN(C)CC1)c1ccccc1 (centres unmarked)	87	1200	-60
O=C1CCN(CC(NC(=O)C(c2ccccc2)c2ccccc2)c2ccccc2)CC1 (centres unmarked)	90	500	0
CCCCCCCC/C=C\CCCCCCCC(=O)NC(CN1CCC(OC)(OC)CC1)c1ccccc1 (centres unmarked)	93	500	-18
CCCCCCCCCCCCCCCC(=O)NC(C(=O)N1CCN(C)CC1)c1ccccc1 (centres unmarked)	95	1800	-17
CCCCCCCC/C=C\CCCCCCCC(=O)NC(CN1CCC(O)CC1)c1ccccc1 (centres unmarked)	98	340	-25
O=C(CCCCCCCCCCOc1ccccc1)NC(CN1CCCCC1)c1ccccc1 (centres unmarked)	84	5000	0
CCCCCCCCCCC(C)(C)C(=O)NC(CN1CCN(C)CC1)c1ccccc1 (centres unmarked)	94	390	0
CN1CCN(CC(NC(=O)C(c2ccccc2)c2ccccc2)c2ccccc2)CC1 (centres unmarked)	71	4500	-39
CCCCCCCCCCCCCC(=O)NC(CN1CCN(C)CC1)c1ccccc1 (centres unmarked)	81	7000	0

Continued, in another order:

inhibition at 10 µM (ACAT) [%]	IC50 (ACAT) [nM]	SMILES	change in vivo at 50 mg/kg (liver cholesterol esters) [%]
99	160	CCCCCCCCCCCCCCCC(=O)NC(CN1CCC2(CC1)OCCO2)c1ccccc1 (centres unmarked)	-19
100	30	CCCCCCCC/C=C\CCCCCCCC(=O)NC(CN1CCC(=NO)CC1)c1ccccc1 (centres unmarked)	-21
98	300	CCCCCCCC/C=C\CCCCCCCC(=O)NC(CN1CCN(C)CC1)c1ccccc1 (centres unmarked)	-55
90	170	CCCCCCCC/C=C\CCCCCCCC(=O)NC(Cc1ccccc1)C1CCCCC1 (centres unmarked)	0
93	150	CCCCCCCC/C=C\CCCCCCCC(=O)NC(CN1CCC(OC)CC1)c1ccccc1 (centres unmarked)	-24
94	300	O=C(NC(CN1CCC2(CC1)OCCO2)c1ccccc1)C(c1ccccc1)c1ccccc1 (centres unmarked)	-26
99	300	CCCCCCCC/C=C\CCCCCCCC(=O)NC(CN1CCOCC1)c1ccccc1 (centres unmarked)	-21
93	10	CCCCCCCC/C=C\CCCCCCCC(=O)NC(CN1CCC2(CC1)OCCO2)c1ccccc1 (centres unmarked)	-35
100	180	CCCCCCCC/C=C\CCCCCCCC(=O)NC(CN1CCC(=O)CC1)c1ccccc1 (centres unmarked)	
92	180	CCCCCCCC/C=C\CCCCCCCC(=O)NC(CC1CCCCC1)c1ccccc1 (centres unmarked)	
95	290	CCCCCCCCCCCCC(C)(C)C(=O)NC(CN1CCN(C)CC1)c1ccccc1 (centres unmarked)	-44
97	160	CCCCCC/C=C\CCCCCCCC(=O)NC(CN1CCN(C)CC1)c1ccccc1 (centres unmarked)	-37
100	60	CCCCCCCC/C=C\CCCCCCCC(=O)NC(CN1CCN(C(=O)OC(C)(C)C)CC1)c1ccccc1 (centres unmarked)	-22
